This passage reports IC50 results from patent US20230139171A1 (SITA Information Networking Computing UK Limited, priority 2019, published 2023).

Holding throughout (assay type): cell-based
Test [1] addresses T1, human TLR9 (Homo sapiens, UniProt Q9NR96).
T1 construct: host or cells: HEK-Blue cells
T1 sequence (Q9NR96 26-1032): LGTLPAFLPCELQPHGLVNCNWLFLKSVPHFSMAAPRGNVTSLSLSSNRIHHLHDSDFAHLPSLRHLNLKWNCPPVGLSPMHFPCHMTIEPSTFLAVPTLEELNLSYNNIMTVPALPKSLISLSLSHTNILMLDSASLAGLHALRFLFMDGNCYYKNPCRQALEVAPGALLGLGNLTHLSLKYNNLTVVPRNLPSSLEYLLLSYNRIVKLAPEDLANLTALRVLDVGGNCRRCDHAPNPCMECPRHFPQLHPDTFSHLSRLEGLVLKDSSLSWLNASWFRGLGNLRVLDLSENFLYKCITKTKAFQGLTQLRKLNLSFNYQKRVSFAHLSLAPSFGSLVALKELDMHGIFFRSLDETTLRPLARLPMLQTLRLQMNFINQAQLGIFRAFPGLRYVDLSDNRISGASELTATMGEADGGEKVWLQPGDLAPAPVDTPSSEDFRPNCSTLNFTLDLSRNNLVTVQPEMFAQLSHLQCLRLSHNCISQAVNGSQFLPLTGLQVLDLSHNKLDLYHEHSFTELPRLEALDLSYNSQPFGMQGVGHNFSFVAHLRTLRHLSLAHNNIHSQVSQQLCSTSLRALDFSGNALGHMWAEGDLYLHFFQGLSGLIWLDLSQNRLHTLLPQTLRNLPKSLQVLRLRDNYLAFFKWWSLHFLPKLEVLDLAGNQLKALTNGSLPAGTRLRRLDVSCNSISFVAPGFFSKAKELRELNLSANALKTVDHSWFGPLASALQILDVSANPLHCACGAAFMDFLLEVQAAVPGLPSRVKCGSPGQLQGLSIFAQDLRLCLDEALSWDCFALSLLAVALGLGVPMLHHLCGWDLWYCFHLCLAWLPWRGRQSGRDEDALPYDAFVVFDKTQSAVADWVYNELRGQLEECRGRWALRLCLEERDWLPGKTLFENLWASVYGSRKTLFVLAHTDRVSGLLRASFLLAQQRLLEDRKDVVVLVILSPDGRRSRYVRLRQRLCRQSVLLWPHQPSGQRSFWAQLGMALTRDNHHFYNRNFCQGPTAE
Kind of test: TLR9 inhibition reporter assay (HEK-Blue cells, SEAP reporter, ODN2006 stimulation). To be noted: HEK-Blue cells overexpressing human TLR9, SEAP reporter, ODN2006 5 nM. As for the experimental part:
TLR7/8/9 Inhibition Reporter Assays
HEK-Blue™-cells (Invivogen) overexpressing human TLR7, TLR8 or TLR9 receptors were used for screening inhibitors of these receptors using an inducible SEAP (secreted embryonic alkaline phosphatase) reporter gene under the control of the IFN-β minimal promoter fused to five NF-κB and AP-1-binding sites. Briefly, cells are seeded into Greiner 384 well plates (15000 cells per well for TLR7, 20,000 for TLR8 and 25,000 for TLR9) and then treated with test compounds in DMSO to yield a final dose response concentration range of 0.05 nM-50 μM. After a 30 minute compound pre-treatment at room temperature, the cells are then stimulated with a TLR7 ligand (gardiquimod at a final concentration of 7.5 μM), TLR8 ligand (R848 at a final concentration of 15.9 μM) or TLR9 ligand (ODN2006 at a final concentration of 5 nM) to activate NF-κB and AP-1 which induce the production of SEAP. After a 22 hour incubation at 37° C., 5% CO2, SEAP levels are determined with the addition of HEK-Blue™ Detection reagent (Invivogen), a cell culture medium that allows for detection of SEAP, according to manufacturer's specifications. The percent inhibition is determined as the % reduction in the HEK-Blue signal present in wells treated with agonist plus DMSO alone compared to wells treated with a known inhibitor.
Background: In a reporter assay the amount or activity of a reporter protein is the signal.

The target of test [2] is T2, human TLR7 (Homo sapiens, UniProt Q9NYK1).
T2 construct: host or cells: HEK-Blue cells
T2 sequence (Q9NYK1 27-1049): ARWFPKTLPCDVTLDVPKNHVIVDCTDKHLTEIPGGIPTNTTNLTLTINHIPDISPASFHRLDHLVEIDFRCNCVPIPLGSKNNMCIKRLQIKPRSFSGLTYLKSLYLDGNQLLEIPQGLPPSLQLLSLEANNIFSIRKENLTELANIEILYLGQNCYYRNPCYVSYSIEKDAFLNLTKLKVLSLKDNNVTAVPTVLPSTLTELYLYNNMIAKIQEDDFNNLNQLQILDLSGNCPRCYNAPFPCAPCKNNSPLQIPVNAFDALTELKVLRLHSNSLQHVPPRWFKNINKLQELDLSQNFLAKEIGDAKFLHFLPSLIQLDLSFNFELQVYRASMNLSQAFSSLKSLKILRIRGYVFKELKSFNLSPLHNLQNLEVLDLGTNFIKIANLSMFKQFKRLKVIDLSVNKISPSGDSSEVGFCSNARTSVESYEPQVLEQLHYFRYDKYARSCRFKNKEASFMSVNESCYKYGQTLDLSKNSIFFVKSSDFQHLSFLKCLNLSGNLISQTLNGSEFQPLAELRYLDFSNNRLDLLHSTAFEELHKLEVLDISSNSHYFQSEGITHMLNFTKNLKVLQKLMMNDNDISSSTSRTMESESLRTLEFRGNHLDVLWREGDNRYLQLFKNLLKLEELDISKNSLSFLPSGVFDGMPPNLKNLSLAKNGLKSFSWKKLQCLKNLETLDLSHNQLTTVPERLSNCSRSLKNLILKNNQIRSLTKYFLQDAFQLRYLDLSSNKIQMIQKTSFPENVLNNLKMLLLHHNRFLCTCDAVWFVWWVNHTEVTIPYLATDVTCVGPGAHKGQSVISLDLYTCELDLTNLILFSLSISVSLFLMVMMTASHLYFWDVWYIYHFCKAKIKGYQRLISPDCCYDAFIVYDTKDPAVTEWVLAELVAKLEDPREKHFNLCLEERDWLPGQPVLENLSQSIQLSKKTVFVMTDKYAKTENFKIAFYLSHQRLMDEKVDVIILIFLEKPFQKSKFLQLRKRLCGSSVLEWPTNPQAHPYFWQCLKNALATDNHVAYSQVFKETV
As to the kind of experiment: TLR7 inhibition reporter assay (HEK-Blue cells, SEAP reporter, gardiquimod stimulation). The note with it: gardiquimod 7.5 μM. The gist of the method: (§1)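 Human TLR7/8/9 HEK-Blue reporter lines; dose range 0.05 nM–50 μM; 30 min RT preincubation; stimulus gardiquimod 7.5 μM / R848 15.9 μM / ODN2006 5 nM respectively; 22 h, 37 °C; SEAP detected colorimetrically.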

Test [3] has as its target T3, human TLR8 (Homo sapiens, UniProt Q9NR97).
T3 construct: host or cells: HEK-Blue cells
T3 sequence (Q9NR97 27-1041): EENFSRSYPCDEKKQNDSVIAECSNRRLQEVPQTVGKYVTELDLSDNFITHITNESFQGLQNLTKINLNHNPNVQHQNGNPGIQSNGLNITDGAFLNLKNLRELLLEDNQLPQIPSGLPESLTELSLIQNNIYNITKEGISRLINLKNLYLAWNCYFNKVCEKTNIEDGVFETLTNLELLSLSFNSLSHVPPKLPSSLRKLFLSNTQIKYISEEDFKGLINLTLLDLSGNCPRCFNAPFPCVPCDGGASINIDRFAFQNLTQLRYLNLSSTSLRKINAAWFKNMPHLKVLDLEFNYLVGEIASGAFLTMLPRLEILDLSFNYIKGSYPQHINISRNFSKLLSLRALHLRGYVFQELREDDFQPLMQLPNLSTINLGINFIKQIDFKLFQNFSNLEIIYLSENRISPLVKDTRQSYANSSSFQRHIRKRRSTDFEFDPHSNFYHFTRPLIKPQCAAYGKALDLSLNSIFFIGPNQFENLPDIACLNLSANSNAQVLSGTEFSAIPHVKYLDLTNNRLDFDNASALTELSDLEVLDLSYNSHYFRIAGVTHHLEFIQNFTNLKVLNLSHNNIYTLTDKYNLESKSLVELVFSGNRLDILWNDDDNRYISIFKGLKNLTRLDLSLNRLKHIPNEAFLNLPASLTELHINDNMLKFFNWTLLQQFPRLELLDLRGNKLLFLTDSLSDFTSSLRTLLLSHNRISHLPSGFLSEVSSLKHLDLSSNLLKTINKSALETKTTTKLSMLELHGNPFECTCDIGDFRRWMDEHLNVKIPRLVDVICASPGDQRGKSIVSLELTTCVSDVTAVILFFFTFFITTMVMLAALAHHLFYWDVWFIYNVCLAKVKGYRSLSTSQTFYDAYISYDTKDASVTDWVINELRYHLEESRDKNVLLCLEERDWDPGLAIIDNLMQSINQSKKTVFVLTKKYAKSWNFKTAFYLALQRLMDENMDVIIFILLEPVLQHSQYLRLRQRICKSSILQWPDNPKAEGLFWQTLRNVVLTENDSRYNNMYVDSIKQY
As to the kind of experiment: TLR8 inhibition reporter assay (HEK-Blue cells, SEAP reporter, R848 stimulation). To be noted: R848 15.9 μM. In short, it runs like this:
as §1

Where [4] appears, read: HEK-Blue cells overexpressing human TLR7, SEAP reporter, read-out: TLR7 IC50.
Setting [5] is: HEK-Blue cells overexpressing human TLR8, SEAP reporter, read-out: TLR8 IC50.

Like-named read-outs stand apart in the source and are kept apart here.

As usually defined, the IC50 is the concentration that inhibits the measured activity by half.

Regarding `COc1cc(-c2c(C(C)C)c3nc(C4CCN(CC(F)(F)F)CC4)sc3n2CC(F)(F)F)cn2ncnc12` [Example 9, 6-isopropyl-5-(8-methoxy-[1,2,4]triazolo[1,5-a]pyridin-6-yl)-4-(2,2,2-trifluoroethyl)-2-(1-(2,2,2-trifluoroethyl)piperidin-4-yl)-4H-pyrrolo[3,2-d]thiazole], the IC50 in test [1] is 4160 nM.
Consider `Cc1cc(-c2[nH]c3sc(N4CCNC[C@H]4C)nc3c2C(C)C)cn2ncnc12` [Example 311, (R)-6-isopropyl-5-(8-methyl-[1,2,4]triazolo[1,5-a]pyridin-6-yl)-2-(2-methylpiperazin-1-yl)-4H-pyrrolo[3,2-d]thiazole], for which the IC50 in test [2] (setting [4]) came out at 1400 nM; in test [1], 18800 nM.
For the compound `Cc1cc(-c2[nH]c3sc(N4CCN(C5CCC5)C[C@H]4C)nc3c2C(C)C)cn2ncnc12` [Example 362, (R)-2-(4-cyclobutyl-2-methylpiperazin-1-yl)-6-isopropyl-5-(8-methyl-[1,2,4]triazolo[1,5-a]pyridin-6-yl)-4H-pyrrolo[3,2-d]thiazole], the IC50 in test [1] was determined as 25100 nM.
Regarding `Cc1cc(-c2[nH]c3sc(C(=O)NCC4(S(C)(=O)=O)CC4)nc3c2C(C)C)cn2ncnc12` [Example 399, 6-isopropyl-5-(8-methyl-[1,2,4]triazolo[1,5-a]pyridin-6-yl)-N-((1-(methylsulfonyl)cyclopropyl)methyl)-4H-pyrrolo[3,2-d]thiazole-2-carboxamide], the IC50 turned out to be 126 nM in test [2] (setting [4]) and 132 nM in test [3] (setting [5]).
As for `Cc1c(-c2[nH]c3sc(CNCC(N)=O)nc3c2C(C)C)cn2ncnc2c1C` [Example 402, 2-(((5-(7,8-dimethyl-[1,2,4]triazolo[1,5-a]pyridin-6-yl)-6-isopropyl-4H-pyrrolo[3,2-d]thiazol-2-yl)methyl)amino)acetamide], the results for the IC50 in test [2] (setting [4]) and in test [3] (setting [5]) were 35.1 nM and 297 nM, respectively.
As for `Cc1c(-c2[nH]c3sc(CN4CC5(C4)CS(=O)(=O)C5)nc3c2C(C)C)cn2ncnc2c1C` [Example 403, 6-((5-(7,8-dimethyl-[1,2,4]triazolo[1,5-a]pyridin-6-yl)-6-isopropyl-4H-pyrrolo[3,2-d]thiazol-2-yl)methyl)-2-thia-6-azaspiro[3.3]heptane 2,2-dioxide], the IC50 in test [2] (TLR7 IC50, HEK-Blue cells overexpressing human TLR7, SEAP reporter) worked out at 26.9 nM; in test [3] (TLR8 IC50, HEK-Blue cells overexpressing human TLR8, SEAP reporter), 156 nM.
With `Cc1c(-c2[nH]c3sc(CN4CC5(CCOCC5)C4)nc3c2C(C)C)cn2ncnc2c1C` [Example 404, 2-((5-(7,8-dimethyl-[1,2,4]triazolo[1,5-a]pyridin-6-yl)-6-isopropyl-4H-pyrrolo[3,2-d]thiazol-2-yl)methyl)-7-oxa-2-azaspiro[3.5]nonane], the IC50 in test [2] (setting [4]) was 43.6 nM; in test [3] (setting [5]), 124 nM.
As for `Cc1c(-c2[nH]c3sc(CN4CCNC(=O)C4)nc3c2C(C)C)cn2ncnc2c1C` [Example 406, 4-((5-(7,8-dimethyl-[1,2,4]triazolo[1,5-a]pyridin-6-yl)-6-isopropyl-4H-pyrrolo[3,2-d]thiazol-2-yl)methyl) piperazin-2-one], the IC50 in test [2] (setting [4]) amounted to 2.74 nM; in test [3] (setting [5]) it was 142 nM.
With `Cc1c(-c2[nH]c3sc(CN4CCOCC4)nc3c2C(C)C)cn2ncnc2c1C` [Example 407, 4-((5-(7,8-dimethyl-[1,2,4]triazolo[1,5-a]pyridin-6-yl)-6-isopropyl-4H-pyrrolo[3,2-d]thiazol-2-yl)methyl)morpholine], the results for the IC50 in test [2] (setting [4]) and in test [3] (setting [5]) were 28.6 nM and 279 nM, respectively.
On to `Cc1c(-c2[nH]c3sc(CN4CC5(COC5)C4)nc3c2C(C)C)cn2ncnc2c1C` [Example 408, 6-((5-(7,8-dimethyl-[1,2,4]triazolo[1,5-a]pyridin-6-yl)-6-isopropyl-4H-pyrrolo[3,2-d]thiazol-2-yl)methyl)-2-oxa-6-azaspiro[3.3]heptane], for which the IC50 was determined as 47.4 nM in test [2] (setting [4]) and 168 nM in test [3] (setting [5]).
